Assay results as given in ChEMBL document CHEMBL1671627, “Increasing trends in antimicrobial resistance among clinically important anaerobes and Bacteroides fragilis isolates causing nosocomial infections: emerging resistance to carbapenems” (2008).

Assays:
[1] = tested on: Bacteroides fragilis; assay: Antibacterial activity against Bacteroides fragilis assessed as susceptible isolates by CLSI agar dilution method; type: functional
[2] = tested on: Bacteroides fragilis; assay: Antibacterial activity against Bacteroides fragilis assessed as resistant isolates by CLSI agar dilution method; type: functional
[3] = tested on: Bacteroides thetaiotaomicron; assay: Antibacterial activity against beta-lactamase producing Bacteroides thetaiotaomicron assessed as susceptible isolates by CLSI agar dilution method; type: functional
[4] = tested on: Bacteroides thetaiotaomicron; assay: Antibacterial activity against beta-lactamase producing Bacteroides thetaiotaomicron assessed as resistant isolates by CLSI agar dilution method; type: functional
[5] = tested on: Phocaeicola vulgatus; assay: Antibacterial activity against beta-lactamase producing Bacteroides vulgatus by CLSI agar dilution method; type: functional
[6] = tested on: Phocaeicola vulgatus; assay: Antibacterial activity against beta-lactamase producing Bacteroides vulgatus assessed as susceptible isolates by CLSI agar dilution method; type: functional
[7] = tested on: Phocaeicola vulgatus; assay: Antibacterial activity against beta-lactamase producing Bacteroides vulgatus assessed as resistant isolates by CLSI agar dilution method; type: functional
[8] = tested on: Bacteroides uniformis; assay: Antibacterial activity against beta-lactamase producing Bacteroides uniformis by CLSI agar dilution method; type: functional
[9] = tested on: Bacteroides uniformis; assay: Antibacterial activity against beta-lactamase producing Bacteroides uniformis assessed as susceptible isolates by CLSI agar dilution method; type: functional
[10] = tested on: Bacteroides uniformis; assay: Antibacterial activity against beta-lactamase producing Bacteroides uniformis assessed as resistant isolates by CLSI agar dilution method; type: functional
[11] = tested on: Bacteroides caccae; assay: Antibacterial activity against beta-lactamase producing Bacteroides caccae by CLSI agar dilution method; type: functional
[12] = tested on: Bacteroides caccae; assay: Antibacterial activity against beta-lactamase producing Bacteroides caccae assessed as susceptible isolates by CLSI agar dilution method; type: functional
[13] = tested on: Bacteroides caccae; assay: Antibacterial activity against beta-lactamase producing Bacteroides caccae assessed as resistant isolates by CLSI agar dilution method; type: functional
[14] = tested on: Fusobacterium varium; assay: Antibacterial activity against Fusobacterium varium by CLSI agar dilution method; type: functional
[15] = tested on: Fusobacterium nucleatum; assay: Antibacterial activity against Fusobacterium nucleatum by CLSI agar dilution method; type: functional
[16] = tested on: Fusobacterium mortiferum; assay: Antibacterial activity against Fusobacterium mortiferum by CLSI agar dilution method; type: functional
[17] = tested on: Fusobacterium necrophorum; assay: Antibacterial activity against Fusobacterium necrophorum by CLSI agar dilution method; type: functional
[18] = tested on: Fusobacterium varium; assay: Antibacterial activity against Fusobacterium varium assessed as susceptible isolates by CLSI agar dilution method; type: functional
[19] = tested on: Fusobacterium nucleatum; assay: Antibacterial activity against Fusobacterium nucleatum assessed as susceptible isolates by CLSI agar dilution method; type: functional
[20] = tested on: Fusobacterium mortiferum; assay: Antibacterial activity against Fusobacterium mortiferum assessed as susceptible isolates by CLSI agar dilution method; type: functional
[21] = tested on: Fusobacterium necrophorum; assay: Antibacterial activity against Fusobacterium necrophorum assessed as susceptible isolates by CLSI agar dilution method; type: functional
[22] = tested on: Fusobacterium varium; assay: Antibacterial activity against Fusobacterium varium assessed as resistant isolates by CLSI agar dilution method; type: functional
[23] = tested on: Fusobacterium nucleatum; assay: Antibacterial activity against Fusobacterium nucleatum assessed as resistant isolates by CLSI agar dilution method; type: functional
[24] = tested on: Fusobacterium mortiferum; assay: Antibacterial activity against Fusobacterium mortiferum assessed as resistant isolates by CLSI agar dilution method; type: functional
[25] = tested on: Fusobacterium necrophorum; assay: Antibacterial activity against Fusobacterium necrophorum assessed as resistant isolates by CLSI agar dilution method; type: functional
[26] = tested on: Prevotella buccae; assay: Antibacterial activity against Prevotella buccae by CLSI agar dilution method; type: functional; settings: Segatella buccae
[27] = tested on: Prevotella bivia; assay: Antibacterial activity against Prevotella bivia by CLSI agar dilution method; type: functional
[28] = tested on: Prevotella intermedia; assay: Antibacterial activity against Prevotella intermedia by CLSI agar dilution method; type: functional
[29] = tested on: Prevotella melaninogenica; assay: Antibacterial activity against Prevotella melaninogenica by CLSI agar dilution method; type: functional
[30] = tested on: Prevotella buccae; assay: Antibacterial activity against Prevotella buccae assessed as susceptible isolates by CLSI agar dilution method; type: functional, Segatella buccae
[31] = tested on: Prevotella bivia; assay: Antibacterial activity against Prevotella bivia assessed as susceptible isolates by CLSI agar dilution method; type: functional
[32] = tested on: Prevotella intermedia; assay: Antibacterial activity against Prevotella intermedia assessed as susceptible isolates by CLSI agar dilution method; type: functional
[33] = tested on: Prevotella melaninogenica; assay: Antibacterial activity against Prevotella melaninogenica assessed as susceptible isolates by CLSI agar dilution method; type: functional
[34] = tested on: Prevotella buccae; assay: Antibacterial activity against Prevotella buccae assessed as resistant isolates by CLSI agar dilution method; type: functional, Segatella buccae
[35] = tested on: Prevotella bivia; assay: Antibacterial activity against Prevotella bivia assessed as resistant isolates by CLSI agar dilution method; type: functional
[36] = tested on: Prevotella intermedia; assay: Antibacterial activity against Prevotella intermedia assessed as resistant isolates by CLSI agar dilution method; type: functional
[37] = tested on: Prevotella melaninogenica; assay: Antibacterial activity against Prevotella melaninogenica assessed as resistant isolates by CLSI agar dilution method; type: functional
[38] = tested on: Veillonella parvula; assay: Antibacterial activity against Veillonella parvula by CLSI agar dilution method; type: functional
[39] = tested on: Clostridium perfringens; assay: microbe, parasite or virus in culture; type: functional
[40] = tested on: Clostridium paraputrificum; assay: Antibacterial activity against beta-lactamase producing Clostridium paraputrificum by CLSI agar dilution method; type: functional
[41] = tested on: Clostridium septicum; assay: Antibacterial activity against beta-lactamase producing Clostridium septicum by CLSI agar dilution method; type: functional
[42] = tested on: Clostridium tertium; assay: Antibacterial activity against beta-lactamase producing Clostridium tertium by CLSI agar dilution method; type: functional
[43] = tested on: Clostridium paraputrificum; assay: Antibacterial activity against beta-lactamase producing Clostridium paraputrificum assessed as susceptible isolates by CLSI agar dilution method; type: functional
[44] = tested on: Clostridium septicum; assay: Antibacterial activity against beta-lactamase producing Clostridium septicum assessed as susceptible isolates by CLSI agar dilution method; type: functional
[45] = tested on: Clostridium tertium; assay: Antibacterial activity against beta-lactamase producing Clostridium tertium assessed as susceptible isolates by CLSI agar dilution method; type: functional
[46] = tested on: Bacteroides fragilis; assay: Antibacterial activity against Bacteroides fragilis by CLSI agar dilution method; type: functional
[47] = tested on: Bacteroides thetaiotaomicron; assay: Antibacterial activity against beta-lactamase producing Bacteroides thetaiotaomicron by CLSI agar dilution method; type: functional
[48] = tested on: Clostridium paraputrificum; assay: Antibacterial activity against beta-lactamase producing Clostridium paraputrificum assessed as resistant isolates by CLSI agar dilution method; type: functional
[49] = tested on: Clostridium septicum; assay: Antibacterial activity against beta-lactamase producing Clostridium septicum assessed as resistant isolates by CLSI agar dilution method; type: functional
[50] = tested on: Clostridium tertium; assay: Antibacterial activity against beta-lactamase producing Clostridium tertium assessed as resistant isolates by CLSI agar dilution method; type: functional
[51] = tested on: Peptostreptococcus anaerobius; assay: Antibacterial activity against beta-lactamase producing Peptostreptococcus anaerobius by CLSI agar dilution method; type: functional
[52] = tested on: Peptostreptococcus anaerobius; assay: Antibacterial activity against beta-lactamase producing Peptostreptococcus anaerobius assessed as susceptible isolates by CLSI agar dilution method; type: functional
[53] = tested on: Peptostreptococcus anaerobius; assay: Antibacterial activity against beta-lactamase producing Peptostreptococcus anaerobius assessed as resistant isolates by CLSI agar dilution method; type: functional
[54] = tested on: Parvimonas micra; assay: Antibacterial activity against beta-lactamase producing Micromonas micros by CLSI agar dilution method; type: functional
[55] = tested on: Parvimonas micra; assay: Antibacterial activity against beta-lactamase producing Micromonas micros assessed as susceptible isolates by CLSI agar dilution method; type: functional
[56] = tested on: Parvimonas micra; assay: Antibacterial activity against beta-lactamase producing Micromonas micros assessed as resistant isolates by CLSI agar dilution method; type: functional
[57] = tested on: Peptoniphilus asaccharolyticus; assay: Antibacterial activity against beta-lactamase producing Peptoniphilus asaccharolyticus by CLSI agar dilution method; type: functional
[58] = tested on: Peptoniphilus asaccharolyticus; assay: Antibacterial activity against beta-lactamase producing Peptoniphilus asaccharolyticus assessed as susceptible isolates by CLSI agar dilution method; type: functional
[59] = tested on: Peptoniphilus asaccharolyticus; assay: Antibacterial activity against beta-lactamase producing Peptoniphilus asaccharolyticus assessed as resistant isolates by CLSI agar dilution method; type: functional
[60] = tested on: Finegoldia magna; assay: Antibacterial activity against beta-lactamase producing Finegoldia magna by CLSI agar dilution method; type: functional
[61] = tested on: Finegoldia magna; assay: Antibacterial activity against beta-lactamase producing Finegoldia magna assessed as susceptible isolates by CLSI agar dilution method; type: functional
[62] = tested on: Finegoldia magna; assay: Antibacterial activity against beta-lactamase producing Finegoldia magna assessed as resistant isolates by CLSI agar dilution method; type: functional

C[C@@H](O)[C@H]1C(=O)N2C(C(=O)O)=C(S[C@@H]3CN[C@H](C(=O)Nc4cccc(C(=O)O)c4)C3)[C@H](C)[C@H]12
4 µg/mL: MIC90 [39] | MIC90 [40] | MIC90 [41] | MIC90 [42] | MIC90 [46] | MIC90 [47]
0.5 µg/mL: MIC90 [26] | MIC90 [27] | MIC90 [28] | MIC90 [29]
97%: Activity [3]
0.06 µg/mL: MIC50 [14] | MIC50 [15] | MIC50 [16] | MIC50 [17] | MIC50 [51] | MIC50 [54] | MIC50 [57] | MIC50 [60]
0.25 µg/mL: MIC50 [46]
5%: Activity [2]
92%: Activity [6] | Activity [9] | Activity [12]
0%: Activity [22] | Activity [23] | Activity [24] | Activity [25] | Activity [34] | Activity [35] | Activity [36] | Activity [37] | Activity [48] | Activity [49] | Activity [50] | Activity [53] | Activity [56] | Activity [59] | Activity [62]
2 µg/mL: MIC90 [5] | MIC90 [8] | MIC90 [11]
100%: Activity [18] | Activity [19] | Activity [20] | Activity [21] | Activity [30] | Activity [31] | Activity [32] | Activity [33] | Activity [52] | Activity [55] | Activity [58] | Activity [61]
4%: Activity [7] | Activity [10] | Activity [13]
1 µg/mL: MIC50 [5] | MIC50 [8] | MIC50 [11] | MIC50 [47] | MIC90 [51] | MIC90 [54] | MIC90 [57] | MIC90 [60]
0.03 µg/mL: MIC [38]
3%: Activity [4]
90%: Activity [1]
0.12 µg/mL: MIC90 [14] | MIC90 [15] | MIC90 [16] | MIC90 [17] | MIC50 [26] | MIC50 [27] | MIC50 [28] | MIC50 [29] | MIC50 [39] | MIC50 [40] | MIC50 [41] | MIC50 [42]
96%: Activity [43] | Activity [44] | Activity [45]
